Experiments:
NA transporter = target: T1, NA transporter (Rattus norvegicus, UniProt Q9WTR4); assay: Noradrenalin uptake inhibition (NA-uptake) in synaptosomes; format: biochemical; conditions: rat hypothalamus synaptosomes
T1 construct: synaptosomes from rat brain regions were freshly isolated; from tissue; host or cells: P2 synaptosome fraction from hypothalamus of male rat brain
From the text: Tests on Noradrenalin Uptake Inhibition (NA-Uptake Inhibition)
In order to be able to carry out these in vitro studies, synaptosomes from rat brain regions were freshly isolated.

5HT-uptake = target: T2, 5HT-uptake (Rattus norvegicus, UniProt P31652); assay: Serotonin uptake inhibition (5HT uptake) in synaptosomes; format: biochemical; conditions: rat brain synaptosomes
T2 construct: synaptosomes from rat brain regions were freshly isolated; from tissue; host or cells: P2 synaptosome fraction from rat brain regions
T2 sequence (P31652 whole entry): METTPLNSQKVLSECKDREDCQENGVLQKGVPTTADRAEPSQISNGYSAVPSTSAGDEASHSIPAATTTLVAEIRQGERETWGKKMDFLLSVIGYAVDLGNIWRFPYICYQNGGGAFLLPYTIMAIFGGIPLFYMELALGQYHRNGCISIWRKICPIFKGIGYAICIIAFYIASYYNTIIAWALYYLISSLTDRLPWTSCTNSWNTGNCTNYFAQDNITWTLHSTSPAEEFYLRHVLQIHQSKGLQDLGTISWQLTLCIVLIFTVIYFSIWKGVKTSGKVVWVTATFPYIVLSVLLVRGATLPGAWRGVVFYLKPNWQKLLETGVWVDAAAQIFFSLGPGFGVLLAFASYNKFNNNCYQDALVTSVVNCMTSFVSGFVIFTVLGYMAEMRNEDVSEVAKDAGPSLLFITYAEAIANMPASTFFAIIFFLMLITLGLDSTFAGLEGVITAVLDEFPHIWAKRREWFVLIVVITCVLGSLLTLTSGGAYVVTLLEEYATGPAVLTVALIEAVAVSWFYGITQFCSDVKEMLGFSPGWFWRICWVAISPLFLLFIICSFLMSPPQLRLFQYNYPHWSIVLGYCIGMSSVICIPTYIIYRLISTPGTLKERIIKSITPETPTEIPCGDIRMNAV
From the text: Tests on Serotonin Uptake (5HT Uptake Inhibition)

α2A-receptor = target: T3, α2A-receptor (Homo sapiens, UniProt P08913); assay: α2A-assay, displacement of a marked ligand; format: binding; conditions: human receptor membranes, read-out: alpha2A human, 1 μM, % inhibition
T3 construct: purchased
T3 sequence (P08913 1-465): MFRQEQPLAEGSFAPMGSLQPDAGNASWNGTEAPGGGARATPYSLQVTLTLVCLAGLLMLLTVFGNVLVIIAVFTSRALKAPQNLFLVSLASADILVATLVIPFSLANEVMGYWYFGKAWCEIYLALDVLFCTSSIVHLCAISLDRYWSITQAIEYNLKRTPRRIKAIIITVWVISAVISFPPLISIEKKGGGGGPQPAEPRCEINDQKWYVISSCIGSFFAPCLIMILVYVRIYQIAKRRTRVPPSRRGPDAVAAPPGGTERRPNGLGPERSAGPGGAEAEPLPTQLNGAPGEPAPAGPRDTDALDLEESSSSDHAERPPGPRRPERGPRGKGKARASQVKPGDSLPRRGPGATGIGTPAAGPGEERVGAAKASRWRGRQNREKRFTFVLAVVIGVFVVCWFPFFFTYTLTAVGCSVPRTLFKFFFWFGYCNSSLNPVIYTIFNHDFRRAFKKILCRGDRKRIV
Method: The bond was measured here by the displacement of a marked ligand. The test was carried out according to J. P. Devlin's instructions, “High throughput screening—the discovery of bioactive substances”, p. 275-453, Marcel Dekker, New York, 1997. Membranes containing […] (human) were obtained commercially.
Compounds according to the invention were tested in this assay: the measured results are recited in Table 5: […]

T1 sequence (Q9WTR4 1-597): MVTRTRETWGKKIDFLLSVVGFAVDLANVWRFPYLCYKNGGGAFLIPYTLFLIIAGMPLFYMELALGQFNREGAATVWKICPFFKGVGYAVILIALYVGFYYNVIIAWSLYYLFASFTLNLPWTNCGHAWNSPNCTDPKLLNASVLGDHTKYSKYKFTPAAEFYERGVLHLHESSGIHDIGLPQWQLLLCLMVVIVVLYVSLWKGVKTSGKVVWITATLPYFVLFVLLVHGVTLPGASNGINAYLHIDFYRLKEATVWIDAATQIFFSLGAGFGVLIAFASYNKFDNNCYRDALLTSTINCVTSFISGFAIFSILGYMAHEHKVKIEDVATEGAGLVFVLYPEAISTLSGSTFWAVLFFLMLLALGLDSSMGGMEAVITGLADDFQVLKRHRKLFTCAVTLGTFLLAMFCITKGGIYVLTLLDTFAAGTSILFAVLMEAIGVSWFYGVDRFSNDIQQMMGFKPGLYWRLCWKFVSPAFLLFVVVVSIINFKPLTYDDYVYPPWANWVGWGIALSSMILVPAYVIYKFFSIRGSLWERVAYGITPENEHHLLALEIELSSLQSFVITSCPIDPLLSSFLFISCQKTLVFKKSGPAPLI

Row | Compound | inhibition at 10 µM (NA transporter) [%] | inhibition at 10 µM (5HT-uptake) [%] | inhibition at 1 µM (α2A-receptor) [%] | NA-uptake, 10 μM, % inhibition (NA transporter) [%] | 5HT-uptake, 10 μM, % inhibition (5HT-uptake) [%]
1 | Cc1ccccc1N1CCN(C(=O)C2=NOC3(CCN(S(=O)(=O)c4cccs4)CC3)C2)CC1 [Example 27, [8-(thiophene-2-sulphonyl)-1-oxa-2,8-diaza-spiro[4,5]dec-2-en-3-yl]-(4-o-tolyl-piperazin-1-yl)-methanone] | 80 | 49 | 37 |  | 
2 | COc1ccc(S(=O)(=O)N2CCC3(CC2)CC(C(=O)NC(C)Cc2ccc(Cl)cc2)=NO3)cc1 (stereo not shown) [Example 164, 8-(4-methoxy-benzenesulphonyl)-1-oxa-2,8-diaza-spiro[4,5]dec-2-ene-3-carboxylic acid [2-(4-chloro-phenyl)-1-methyl-ethyl]-amide] | 80 | 54 |  |  | 
3 | O=C(NC1CCN(Cc2ccc3ccccc3c2)C1)C1=NOC2(CCN(S(=O)(=O)c3ccc(Cl)s3)CC2)C1 (stereo not shown) [Example 50, 8-(5-chloro-thiophene-2-sulphonyl)-1-oxa-2,8-diaza-spiro[4,5]dec-2-ene-3 carboxylic acid (1-naphthalen-2-ylmethyl-pyrrolidin-3-yl)-amide] | 50 | 57 |  |  | 
4 | O=C(C1=NOC2(CCN(S(=O)(=O)c3ccc(Cl)s3)CC2)C1)N1CCN(c2ccccc2)CC1 [Example 4, [8-(5-chloro-thiophene-2-sulphonyl)-1-oxa-2,8-diaza-spiro[4,5]dec-2-en-3-yl]-(4-phenyl-piperazin-1-yl)-methanone] | 45 | 54 |  |  | 
5 | COc1ccccc1C1CCN(C(=O)C2=NOC3(CCN(S(=O)(=O)c4ccc(Cl)s4)CC3)C2)CC1 [Example 151, [8-(5-chloro-thiophene-2-sulphonyl)-1-oxa-2,8-diaza-spiro[4,5]dec-2-en-3-yl]-[4-(2-methoxy-phenyl)-piperidin-1-yl]-methanone] |  |  | 33 |  | 
6 | Cc1cc(C(=O)N2CCC3(CC2)CC(C(=O)NCc2ccncc2)=NO3)ccc1Br [Example 130, 8-(4-bromo-3-methyl-benzoyl)-1-oxa-2,8-diaza-spiro[4,5]dec-2-ene-3-carboxylic acid (pyridin-4-ylmethyl)-amide] | 61 | 64 |  |  | 
7 | O=C(NCCc1ccc(Cl)c(Cl)c1)C1=NOC2(CCN(S(=O)(=O)c3ccc(OC(F)(F)F)cc3)CC2)C1 [Example 165] |  |  |  | 55 | 41
8 | Cc1cccc(N2CCN(C(=O)C3=NOC4(CCN(S(=O)(=O)c5cccs5)CC4)C3)CC2C)c1 (stereo not drawn) [Example 31, (3-methyl-4-m-tolyl-piperazin-l-yl)-[8-(thiophene-2-sulphonyl)-1-oxa-2,8-diaza-spiro[4,5]dec-2-en-3-yl]-methanone] |  |  |  | 66 | 69
9 | O=C(C1=NOC2(CCN(S(=O)(=O)c3cccs3)CC2)C1)N1CCN(C2CCCCCC2)CC1 [Example 3, (4-cycloheptyl-piperazin-l-yl)-[8-(thiophene-2-sulphonyl)-1-oxa-2,8-diaza-spiro [4,5]dec-2-en-3-yl]-methanone] |  |  |  | 59 | 51
10 | COc1ccc(S(=O)(=O)N2CCC3(CC2)CC(C(=O)NCCc2ccccc2F)=NO3)cc1 [Example 104] |  |  |  | 49 | 41
11 | O=C(NC1CCCC1)C1=NOC2(CCN(C(=O)c3ccc([N+](=O)[O-])cc3Cl)CC2)C1 [Example 5, 8-(2-chloro-4-nitro-benzoyl)-1-oxa-2,8-diaza-spiro[4,5]dec-2-ene-3-carboxylic acid cyclopentylamide] | 53 | 59 |  |  | 
12 | O=C(NCC1COc2ccccc2O1)C1=NOC2(CCN(S(=O)(=O)c3cccs3)CC2)C1 (stereo not shown) [Example 21, 8-(thiophene-2-sulphonyl)-1-oxa-2,8-diaza-spiro[4,5]dec-2-ene-3-carboxylic acid (2,3-dihydro-benzo[1,4]dioxin-2-ylmethyl)-amide] | 61 |  | 31 |  | 
13 | CC(NC(=O)C1=NOC2(CCN(S(=O)(=O)c3cc(Cl)ccc3Cl)CC2)C1)C(=O)Nc1ccc2ccccc2c1 (stereo not shown) [Example 44, 8-(2,5-dichloro-benzenesulphonyl)-1-oxa-2,8-diaza-spiro[4,5]dec-2-ene-3-carboxylic acid [1-(naphthalen-2-ylcarbamoyl)-ethyl]amide] | 48 | 80 |  |  | 
14 | O=C(C1=NOC2(CCN(S(=O)(=O)c3cccs3)CC2)C1)N1CCN(CCCc2ccccc2)CC1 [Example 14, [4-(3-phenyl-propyl)-piperazin-l-yl]-[8-(thiophene-2-sulphonyl)-1-oxa-2,8-diaza-spiro[4,5]dec-2-en-3-yl]-methanone] |  |  |  | 70 | 78
